Reference: patent publication US20240383906A1, “5-SUBSTITUTED PYRIDINE-2(1H)-KETONE COMPOUND AND USE THEREOF” (JIANGSU KANION PHARMACEUTICAL CO., LTD., priority 2021, published 2024)

Key:
[1] = tested on: WNT pathway STF reporter gene; assay: Super-Top-Flash (STF) reporter gene inhibitory activity test; format: cell-based; details: HEK293 STF and L wnt3A cells 1:1, 24 hours, Bright-Glo
Experimental: HEK293 STF and L wnt3A cells were provided by Wuhan Heyan Biomedical Technology Co., Ltd., and Bright Glo was purchased from Promega.
• HEK293 STF and L wnt3A cells were seeded in a white 96-well plate at a ratio of 1:1, with 80 μL of cell suspension per well, each containing 20,000 HEK293 STF cells and 20,000 L wnt3A cells. The cell plate was placed in a carbon dioxide incubator for overnight culture.
The test compounds were 5-fold diluted with a multi-channel pipette to the 8th concentration, i.e., diluted from 400 μM to 5.12 nM, and duplicate experiment was set. 78 μL of culture medium was added to an intermediate plate, and then 2 μL of gradient diluted compound per well was transferred to the intermediate plate according to the corresponding position. After mixing well, the compound was transferred to the cell plate at 20 μL per well. The cell plate was placed in a carbon dioxide incubator and cultured for 24 hours.
100 μL of Promega Bright-Glo reagent was added to each well of the cell plate, and it was incubated at room temperature for 10 minutes to stabilize the luminescent signal. A multimode microplate reader was used for reading.
Using the raw data from the multimode microplate reader, the IC50 value could be obtained through curve fitting. Table 10 provides the data on the inhibitory activity of the compounds of the present disclosure on the Wnt signaling pathway.

[2] = Pharmacokinetic evaluation in mice; format: in vivo; details: male CD-1 mice
Experimental: • CD-1 mice (male, 7 to 9 weeks old, Shanghai SLAC)
The pharmacokinetic characteristics of the compound in rodents were tested using a standard protocol after intravenous injection (IV) and oral (PO) administration. In the experiment, mice were given a single intravenous injection and oral administration. The solvent for the intravenous injection was water. The solvent for oral administration was 0.5% hydroxypropyl methylcellulose. This project involved four male CD-1 mice. Two of the mice were administered a dose of 0.5 mg/kg via intravenous injection. Plasma samples were collected at 0 hours (before administration) and at 0.083, 0.25, 0.5, 1, 2, 4, 8, and 24 hours after administration. The other two mice were administered a dose of 2.5 mg/kg via oral gavage. Plasma samples were collected at 0 h (before administration) and at 0.25, 0.5, 1, 2, 4, 8, and 24 hours after administration. Whole blood samples were collected within 24 hours, centrifuged at 3000 g for 15 minutes, and the supernatant was separated to obtain plasma samples. Four times the volume of acetonitrile solution containing an internal standard was added to precipitate the protein. After centrifugation, the supernatant was collected, an equal volume of water was added, and it was centrifuged again to collect the supernatant for sampling. The plasma concentration was quantitatively analyzed by LC-MS/MS analysis method, and the pharmacokinetic parameters were calculated, such as peak concentration (Cmax), clearance rate (CL), half-life (T1/2), volume of distribution at steady state (Vdss), area under drug-time curve (AUC0-last), bioavailability (F).

[3] = Toxicological evaluation (with toxicokinetics) of rats administered for 21 consecutive days; details: SD, rat, in vivo, po
Experimental: • SD rats (male and female, 7 to 8 weeks old, Zhejiang Vital River Laboratory Animal Technology Co., Ltd.).
• In this experiment, SD rats were administered orally once a day with a test substance, a candidate drug for treating cancer, for 21 days to detect its potential toxicity. At the same time, the toxicokinetic (TK) characteristics of the compound in the animals were examined.
126 rats (63 per gender) were divided into 6 groups. In the main test administration groups, each group had 5 males and 5 females. In the TK test control group, there were 3 males and 3 females. In the administration groups, each group had 6 males and 6 females. The compound was administered once a day at doses of 1, 3, 10, 20 milligrams per kilogram per day (mg/kg/day). The control group was only given the solvent. The volume of administration was 10 mL/kg. At the start of administration, the animals were 7 to 8 weeks old, with male weights ranging from 251.11 to 308.11 grams, and female weights from 181.53 to 219.03 grams.
The evaluation items include mortality (moribund/death), clinical symptoms, body weight, food consumption, clinical pathology (hematology, serum biochemistry, coagulation), gross (necropsy) evaluation, organ weights, histopathological evaluation, and toxicokinetics. The toxicokinetic parameters include peak concentration (Cmax), time to maximum drug concentration (Tmax), and area under the drug-time curve (AUC0-last).

[4] = female, 1 mg/kg/day, female, oral 1 mg/kg/day, Day 1
[5] = female, 1 mg/kg/day, female, oral 1 mg/kg/day, Day 21
[6] = female, 3 mg/kg/day, female, oral 3 mg/kg/day, Day 1
[7] = female, 3 mg/kg/day, female, oral 3 mg/kg/day, Day 21
[8] = female, 10 mg/kg/day, female, oral 10 mg/kg/day, Day 1
[9] = female, 10 mg/kg/day, female, oral 10 mg/kg/day, Day 21
[10] = female, 20 mg/kg/day, female, oral 20 mg/kg/day, Day 1
[11] = female, 20 mg/kg/day, female, oral 20 mg/kg/day, Day 21
[12] = male, 1 mg/kg/day, male, oral 1 mg/kg/day, Day 1
[13] = male, 1 mg/kg/day, male, oral 1 mg/kg/day, Day 21
[14] = male, 3 mg/kg/day, male, oral 3 mg/kg/day, Day 1
[15] = male, 3 mg/kg/day, male, oral 3 mg/kg/day, Day 21
[16] = male, 10 mg/kg/day, male, oral 10 mg/kg/day, Day 1
[17] = male, 10 mg/kg/day, male, oral 10 mg/kg/day, Day 21
[18] = male, 20 mg/kg/day, male, oral 20 mg/kg/day, Day 1
[19] = male, 20 mg/kg/day, male, oral 20 mg/kg/day, Day 21

In the case of `Cn1cc(-c2cnc(CNc3nccn4c(-c5cc(F)cc(F)c5)cnc34)cn2)ccc1=O` [Compound 2], the IC50 [1] is reported as 0.23 nM, the F ([2]; IV 0.5 mg/kg, PO 2.5 mg/kg) is reported as 29.4% and the clearance ([2]; mouse, plasma, IV 0.5 mg/kg) is reported as 5.37 mL/min/kg. It also gave a half-life ([2]; mouse, plasma, IV 0.5 mg/kg, read-out: T1/2 (IV) (converted)) of 5.99 h, a Vd ([2]; mouse, plasma, IV 0.5 mg/kg, read-out: Vdss) of 0.568 L/kg and an AUC(0-t) ([2]; mouse, plasma, PO 2.5 mg/kg, read-out: AUC0-last (PO)) of 20.5 µM·h. The Cmax ([2]; mouse, plasma) was 1.76 µM, the Cmax [3, 4] was 1.02 µM and the Tmax [3, 4] was 4 h. For the same compound, the AUC(0-t) ([3]; female, 1 mg/kg/day, female, oral 1 mg/kg/day, Day 1, read-out: AUC0-24 h) was 14.5 µM·h, the Cmax [3, 5] was 1.58 µM and the Tmax [3, 5] was 8 h. The AUC(0-t) ([3]; female, 1 mg/kg/day, female, oral 1 mg/kg/day, Day 21, read-out: AUC0-24 h) was 25.6 µM·h, the Cmax [3, 6] was 2.27 µM and the Tmax [3, 6] was 8 h. The AUC(0-t) ([3]; female, 3 mg/kg/day, female, oral 3 mg/kg/day, Day 1, read-out: AUC0-24 h) was 33.2 µM·h, the Cmax [3, 7] was 4.18 µM and the Tmax [3, 7] was 8 h. For the same compound, the AUC(0-t) ([3]; female, 3 mg/kg/day, female, oral 3 mg/kg/day, Day 21, read-out: AUC0-24 h) was 63.8 µM·h, the Cmax [3, 8] was 3.93 µM and the Tmax [3, 8] was 4 h. It also gave an AUC(0-t) ([3]; female, 10 mg/kg/day, female, oral 10 mg/kg/day, Day 1, read-out: AUC0-24 h) of 77.7 µM·h, a Cmax [3, 9] of 8.8 µM and a Tmax [3, 9] of 8 h. For the same compound, the AUC(0-t) ([3]; female, 10 mg/kg/day, female, oral 10 mg/kg/day, Day 21, read-out: AUC0-24 h) was 144 µM·h, the Cmax [3, 10] was 6.17 µM and the Tmax [3, 10] was 8 h. It also gave an AUC(0-t) ([3]; female, 20 mg/kg/day, female, oral 20 mg/kg/day, Day 1, read-out: AUC0-24 h) of 101 µM·h, a Cmax [3, 11] of 10.3 µM and a Tmax [3, 11] of 8 h. It also gave an AUC(0-t) ([3]; female, 20 mg/kg/day, female, oral 20 mg/kg/day, Day 21, read-out: AUC0-24 h) of 179 µM·h, a Cmax [3, 12] of 0.97 µM and a Tmax [3, 12] of 8 h. For the same compound, the AUC(0-t) ([3]; male, 1 mg/kg/day, male, oral 1 mg/kg/day, Day 1, read-out: AUC0-24 h) was 12.5 µM·h, the Cmax [3, 13] was 1.62 µM and the Tmax [3, 13] was 8 h. It also gave an AUC(0-t) ([3]; male, 1 mg/kg/day, male, oral 1 mg/kg/day, Day 21, read-out: AUC0-24 h) of 22.4 µM·h, a Cmax [3, 14] of 1.88 µM and a Tmax [3, 14] of 8 h. For the same compound, the AUC(0-t) ([3]; male, 3 mg/kg/day, male, oral 3 mg/kg/day, Day 1, read-out: AUC0-24 h) was 23.1 µM·h, the Cmax [3, 15] was 3.5 µM and the Tmax [3, 15] was 8 h. It also gave an AUC(0-t) ([3]; male, 3 mg/kg/day, male, oral 3 mg/kg/day, Day 21, read-out: AUC0-24 h) of 50.1 µM·h, a Cmax [3, 16] of 2.96 µM and a Tmax [3, 16] of 4 h. It also gave an AUC(0-t) ([3]; male, 10 mg/kg/day, male, oral 10 mg/kg/day, Day 1, read-out: AUC0-24 h) of 47.4 µM·h, a Cmax [3, 17] of 6.87 µM and a Tmax [3, 17] of 8 h. For the same compound, the AUC(0-t) ([3]; male, 10 mg/kg/day, male, oral 10 mg/kg/day, Day 21, read-out: AUC0-24 h) was 110 µM·h, the Cmax [3, 18] was 4.24 µM and the Tmax [3, 18] was 8 h. The AUC(0-t) ([3]; male, 20 mg/kg/day, male, oral 20 mg/kg/day, Day 1, read-out: AUC0-24 h) was 76.6 µM·h, the Cmax [3, 19] was 7.34 µM and the Tmax [3, 19] was 8 h. The AUC(0-t) ([3]; male, 20 mg/kg/day, male, oral 20 mg/kg/day, Day 21, read-out: AUC0-24 h) was 123 µM·h.
